Columns and labels:
Tyk2 kinase domain (DH1) = Tyk2 kinase domain (DH1) (Homo sapiens (Human), UniProt P29597); test: Tyk2 Radioactive Kinase Assay; type: biochemical; conditions: 10 μM compound, 10 μM ATP; for inhibition at 10 µM: read-out: Tyk2 JH1% Inhibition @ 10 μM
How it was run: (§1)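 Each kinase domain is incubated with test compound at 10 μM. Activity is then measured radiometrically and expressed as percent inhibition relative to uninhibited enzyme.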

[1] = target: human TYK2 (JH2domain-pseudokinase) (Homo sapiens (Human), UniProt P29597); test: TYK2 JH2 Domain Binding Assay (KINOMEscan)
Chain of human TYK2 (JH2domain-pseudokinase) (P29597 556-888): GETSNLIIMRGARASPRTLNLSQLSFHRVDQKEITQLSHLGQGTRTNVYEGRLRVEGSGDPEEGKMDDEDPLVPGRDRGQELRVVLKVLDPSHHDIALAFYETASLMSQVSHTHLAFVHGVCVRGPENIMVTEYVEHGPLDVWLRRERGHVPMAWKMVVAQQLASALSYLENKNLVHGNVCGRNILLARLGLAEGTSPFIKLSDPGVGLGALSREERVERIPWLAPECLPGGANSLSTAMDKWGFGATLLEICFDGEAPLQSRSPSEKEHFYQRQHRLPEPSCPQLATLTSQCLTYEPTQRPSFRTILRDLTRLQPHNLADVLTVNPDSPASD
How it was run: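 Kds, run in duplicate, came from Hill fits (slope fixed at −1) of an 11-point 3-fold dilution series starting at 30,000 nM. Bead-retained TYK2 JH2 (aa G556–D888)–NFkB DBD fusion, DNA-tagged and expressed in HEK293 cells, was read by qPCR after 1 h room-temperature binding in 0.9% DMSO.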

JAK2 kinase domain (JH1) = JAK2 kinase domain (JH1) (Homo sapiens (Human), UniProt O60674); test: JAK2 Radioactive Kinase Assay; type: biochemical; conditions: 10 μM compound, 10 μM ATP; for inhibition at 10 µM: read-out: JAK2 JH1% Inhibition @ 10 μM
Chain of JAK2 kinase domain (JH1) (O60674 849-1124): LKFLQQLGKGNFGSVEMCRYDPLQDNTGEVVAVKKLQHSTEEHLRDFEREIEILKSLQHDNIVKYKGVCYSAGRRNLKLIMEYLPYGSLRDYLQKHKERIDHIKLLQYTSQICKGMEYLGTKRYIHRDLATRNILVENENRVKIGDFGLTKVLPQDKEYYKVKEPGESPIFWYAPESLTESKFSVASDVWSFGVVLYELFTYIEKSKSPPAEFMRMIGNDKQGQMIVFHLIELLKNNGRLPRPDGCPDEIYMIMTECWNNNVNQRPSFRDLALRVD
How it was run: as §1

Chain of Tyk2 kinase domain (DH1) (P29597 897-1176): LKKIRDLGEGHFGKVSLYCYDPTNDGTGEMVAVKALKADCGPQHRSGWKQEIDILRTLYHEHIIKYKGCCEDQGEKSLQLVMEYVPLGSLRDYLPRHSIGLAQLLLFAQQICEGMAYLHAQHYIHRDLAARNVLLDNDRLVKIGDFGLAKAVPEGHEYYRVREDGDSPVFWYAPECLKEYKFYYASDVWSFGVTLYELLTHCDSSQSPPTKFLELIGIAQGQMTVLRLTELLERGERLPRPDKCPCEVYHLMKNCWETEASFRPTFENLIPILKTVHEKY

| Compound | inhibition at 10 µM (Tyk2 kinase domain (DH1)) [%] | Kd [1] [nM] | inhibition at 10 µM (JAK2 kinase domain (JH1)) [%] | Tyk2 JH1% Inhibition @ 10 μM (Tyk2 kinase domain (DH1)) | JAK2 JH1% Inhibition @ 10 μM (JAK2 kinase domain (JH1)) |
| --- | --- | --- | --- | --- | --- |
| CNc1cc(Nc2cccn(-c3ccccc3F)c2=O)nc2c(C(=O)NCC(C)CO)cnn12 (stereo not drawn) [I-941] | < 50 | < 0.2 | < 50 | – | – |
| CNc1cc(Nc2cccn(C3CCCCC3)c2=O)nc2c(C(=O)N[C@H]3CC[C@H]3O)cnn12 [I-942] | < 50 | < 0.2 | < 50 | – | – |
| CNc1cc(Nc2cccn(C3CCCCC3)c2=O)nc2c(C(=O)NCC(C)CO)cnn12 (stereo not drawn) [I-944] | < 50 | < 0.2 | < 50 | – | – |
| CNc1cc(Nc2cccn(-c3cccc(F)c3)c2=O)nc2c(C(=O)NCC(C)CO)cnn12 (stereo not drawn) [I-947] | < 50 | < 0.2 | < 50 | – | – |
| CNc1cc(Nc2cccc(-c3cn(C)nc3F)n2)nc2c(C(=O)N[C@H]3CC[C@H]3O)cnn12 [I-948] | < 50 | < 0.2 | < 50 | – | – |
| CNc1cc(Nc2cccc(-c3cn(C)nc3F)n2)nc2c(C(=O)N[C@@H]3CC[C@@H]3O)cnn12 [I-949] | < 50 | 1 to 10 | < 50 | – | – |
| CNc1cc(Nc2cccn([C@H]3CCC[C@@H](OC)C3)c2=O)nc2c(C(=O)NCC(C)(C)CO)cnn12 [I-950] | < 50 | 0.2 to 1 | < 50 | – | – |
| CNc1cc(-c2cn(CCN3CCN(C)CC3)c3ncccc23)nc2c(C(=O)N[C@@H]3CC[C@H]3OC)cnn12 [I-953] | < 50 | 0.2 to 1 | < 50 | – | – |
| CNc1cc(Nc2cccn([C@H]3CC[C@H]3O)c2=O)nc2c(C(=O)NC3CC3)cnn12 [I-956] | – | < 0.2 | – | A (percent inhibition at 10 μM lower than 50) | A (percent inhibition at 10 μM lower than 50) |
| CNc1cc(Nc2cccn([C@@H]3CCC[C@@H]3O)c2=O)nc2c(C(=O)NC3CC3)cnn12 [I-964] | < 50 | 1 to 10 | < 50 | – | – |
| CNc1cc(Nc2cccn([C@@H]3CCC[C@@H]3O)c2=O)nc2c(C(=O)N[C@@H]3C[C@@H]3F)cnn12 [I-966] | < 50 | 0.2 to 1 | < 50 | – | – |
| CNc1cc(Nc2cccn(-c3cncc(F)c3)c2=O)nc2c(C(=O)NC3CC3)cnn12 [I-967] | < 50 | < 0.2 | < 50 | – | – |
| CNc1cc(Nc2cccn(-c3cncc(F)c3)c2=O)nc2c(C(=O)N[C@@H]3C[C@@H]3F)cnn12 [I-968] | < 50 | < 0.2 | < 50 | – | – |
| CNc1cc(Nc2cccn(-c3ccccn3)c2=O)nc2c(C(=O)N[C@@H]3CC[C@H]3O)cnn12 [I-972] | < 50 | 0.2 to 1 | < 50 | – | – |
| CNc1cc(Nc2cccn(C(C)C)c2=O)nc2c(C(=O)N[C@@H]3CC[C@@H]3O)cnn12 [I-978] | < 50 | 0.2 to 1 | < 50 | – | – |
| CNc1cc(Nc2cccn(C(C)C)c2=O)nc2c(C(=O)N[C@H]3CC[C@@H]3O)cnn12 [I-982] | < 50 | 0.2 to 1 | < 50 | – | – |
| CNc1cc(Nc2cccnc2OC2CC2)nc2c(-c3cn(C(C)C)nn3)cnn12 [I-985, N5-(2-cyclopropoxypyridin-3-yl)-3-(1-isopropyl-1H-1,2,3-triazol-4-yl)-N7-methylpyrazolo[1,5-a]pyrimidine-5,7-diamine] | < 50 | 0.2 to 1 | < 50 | – | – |
| CNc1cc(Nc2cccn([C@H]3CCN(CCC#N)C3)c2=O)nc2c(C(=O)N[C@@H]3C[C@@H]3F)cnn12 [I-986] | < 50 | < 0.2 | < 50 | – | – |

| Compound | inhibition at 10 µM (Tyk2 kinase domain (DH1)) [%] | Kd [1] [nM] | inhibition at 10 µM (JAK2 kinase domain (JH1)) [%] | Tyk2 JH1% Inhibition @ 10 μM (Tyk2 kinase domain (DH1)) | JAK2 JH1% Inhibition @ 10 μM (JAK2 kinase domain (JH1)) |
| --- | --- | --- | --- | --- | --- |
| CNc1cc(Nc2cccn([C@@H]3CCN(CCC#N)C3)c2=O)nc2c(C(=O)N[C@@H]3C[C@@H]3F)cnn12 [I-987] | < 50 | < 0.2 | < 50 | – | – |
| CNc1cc(Nc2cccn([C@@H]3CCCC[C@@H]3OC)c2=O)nc2c(C(=O)NC3CC3)cnn12 [I-989] | < 50 | > 10 | < 50 | – | – |
| CNc1cc(Nc2cccn([C@@H]3CCCC[C@@H]3OC)c2=O)nc2c(C(=O)NCC(C)(C)CO)cnn12 [I-990] | < 50 | 1 to 10 | < 50 | – | – |
| CNc1cc(Nc2cccn([C@@H]3CCCC[C@@H]3OC)c2=O)nc2c(C(=O)NCC3(CO)CC3)cnn12 [I-991] | < 50 | 1 to 10 | < 50 | – | – |
| CNc1cc(Nc2cccn([C@H]3CC[C@@H]3OC)c2=O)nc2c(C(=O)N[C@@H]3C[C@@H]3F)cnn12 [I-997] | – | < 0.2 | – | A (percent inhibition at 10 μM lower than 50) | A (percent inhibition at 10 μM lower than 50) |
| CNc1cc(Nc2cccn([C@H]3CC[C@@H]3O)c2=O)nc2c(C(=O)N[C@@H]3C[C@@H]3F)cnn12 [I-998] | – | < 0.2 | – | A (percent inhibition at 10 μM lower than 50) | A (percent inhibition at 10 μM lower than 50) |
| CNc1cc(Nc2cccn(C3CCCCC3)c2=O)nc2c(C(=O)N[C@H]3CC[C@H]3O)cnn12 [I-1001] | – | 1 to 10 | – | A (percent inhibition at 10 μM lower than 50) | A (percent inhibition at 10 μM lower than 50) |
| CNc1cc(Nc2cccn(C3CCCCC3)c2=O)nc2c(C(=O)N[C@H]3CC[C@@H]3O)cnn12 [I-1003] | < 50 | 0.2 to 1 | < 50 | – | – |
| CNc1cc(Nc2cccn(-c3cccc(F)c3)c2=O)nc2c(C(=O)N[C@@H]3CC[C@@H]3O)cnn12 [I-1005] | < 50 | 0.2 to 1 | < 50 | – | – |
| CNc1cc(Nc2cc(Cl)cn(C3CCN(C)CC3)c2=O)nc2c(C(=O)N[C@H]3CC[C@H]3O)cnn12 [I-1006] | < 50 | < 0.2 | < 50 | – | – |
| CNc1cc(Nc2cc(Cl)cn(C3CCN(C)CC3)c2=O)nc2c(C(=O)N[C@@H]3CC[C@@H]3O)cnn12 [I-1007] | < 50 | 0.2 to 1 | < 50 | – | – |
| CNc1cc(Nc2cccnc2OC)nc2c(-c3cn(C(C)C)nn3)cnn12 [I-1008, 3-(1-isopropyl-1H-1,2,3-triazol-4-yl)-N5-(2-methoxypyridin-3-yl)-N7-methylpyrazolo[1,5-a]pyrimidine-5,7-diamine] | < 50 | < 0.2 | 50 to 70 | – | – |
| CNc1cc(Nc2cccn(C3CCCN(CCC#N)C3)c2=O)nc2c(C(=O)NC3CC3)cnn12 (stereo not drawn) [I-1009, 5-((1-(1-(2-cyanoethyl)piperidin-3-yl)-2-oxo-1,2-dihydropyridin-3-yl)amino)-N-cyclopropyl-7-(methylamino)pyrazolo[1,5-a]pyrimidine-3-carboxamide] | < 50 | 0.2 to 1 | < 50 | – | – |
| CNc1cc(Nc2cccn([C@H]3CCN(CCC#N)C3)c2=O)nc2c(C(=O)NC3CC3)cnn12 [I-1011] | < 50 | 0.2 to 1 | < 50 | – | – |
| CNc1cc(Nc2cccn([C@@H]3CCN(CCC#N)C3)c2=O)nc2c(C(=O)NC3CC3)cnn12 [I-1012] | < 50 | 0.2 to 1 | < 50 | – | – |
| CNc1cc(Nc2cccnc2OC)nc2c(C(=O)N[C@H]3CC[C@@]3(C)O)cnn12 [I-1015, N-((1S,2R)-2-hydroxy-2-methylcyclobutyl)-5-((2-methoxypyridin-3-yl)amino)-7-(methylamino)pyrazolo[1,5-a]pyrimidine-3-carboxamide] | < 50 | 1 to 10 | < 50 | – | – |
| CNc1cc(Nc2cccnc2OC)nc2c(C(=O)N[C@@H]3CC[C@]3(C)O)cnn12 [I-1016, N-((1R,2S)-2-hydroxy-2-methylcyclobutyl)-5-((2-methoxypyridin-3-yl)amino)-7-(methylamino)pyrazolo[1,5-a]pyrimidine-3-carboxamide] | < 50 | 1 to 10 | < 50 | – | – |

— US10508120B2, “TYK2 inhibitors and uses thereof” (Nimbus Lakshmi, Inc., priority 2017, dated 2019)
